Assays:
[1] = molecular target: T1, Serine/threonine-protein kinase LATS1 (Homo sapiens) (UniProt O95835); conditions: at 10 µM
T1 sequence (whole entry): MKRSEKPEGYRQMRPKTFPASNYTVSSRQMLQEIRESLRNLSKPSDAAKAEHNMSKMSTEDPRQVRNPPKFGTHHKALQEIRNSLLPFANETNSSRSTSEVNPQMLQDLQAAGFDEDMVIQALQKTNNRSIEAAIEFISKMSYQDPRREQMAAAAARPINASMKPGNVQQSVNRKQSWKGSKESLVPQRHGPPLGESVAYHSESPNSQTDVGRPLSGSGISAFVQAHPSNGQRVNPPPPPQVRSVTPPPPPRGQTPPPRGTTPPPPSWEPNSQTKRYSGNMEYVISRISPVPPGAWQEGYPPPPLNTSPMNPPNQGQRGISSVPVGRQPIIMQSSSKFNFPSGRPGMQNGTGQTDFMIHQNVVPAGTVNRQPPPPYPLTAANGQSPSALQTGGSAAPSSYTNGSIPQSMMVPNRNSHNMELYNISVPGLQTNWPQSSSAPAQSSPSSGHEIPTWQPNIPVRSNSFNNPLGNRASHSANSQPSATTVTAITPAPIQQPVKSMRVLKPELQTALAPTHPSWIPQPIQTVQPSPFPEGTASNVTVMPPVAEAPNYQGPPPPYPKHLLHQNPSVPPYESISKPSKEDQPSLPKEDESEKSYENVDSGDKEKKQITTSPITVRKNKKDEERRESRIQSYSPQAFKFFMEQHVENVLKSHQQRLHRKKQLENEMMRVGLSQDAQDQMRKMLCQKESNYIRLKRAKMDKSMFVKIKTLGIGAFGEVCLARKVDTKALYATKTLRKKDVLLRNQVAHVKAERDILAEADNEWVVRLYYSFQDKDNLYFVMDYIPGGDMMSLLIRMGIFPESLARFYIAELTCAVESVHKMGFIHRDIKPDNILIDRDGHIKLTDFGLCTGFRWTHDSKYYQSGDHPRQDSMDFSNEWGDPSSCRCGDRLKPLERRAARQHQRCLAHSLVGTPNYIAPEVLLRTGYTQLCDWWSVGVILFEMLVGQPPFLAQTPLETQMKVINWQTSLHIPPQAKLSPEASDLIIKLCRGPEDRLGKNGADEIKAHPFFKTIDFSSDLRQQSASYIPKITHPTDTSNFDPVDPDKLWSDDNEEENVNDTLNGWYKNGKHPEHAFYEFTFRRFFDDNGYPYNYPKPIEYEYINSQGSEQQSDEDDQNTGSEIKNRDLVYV

[2] = molecular target: T2, Serine/threonine-protein kinase Sgk2 (Homo sapiens) (UniProt Q9HBY8); experiment: Selectivity interaction (Upstate Kinase Profiler service (Millipore)) EUB0000056c SGK2; conditions: at 1 µM
T2 sequence (whole entry): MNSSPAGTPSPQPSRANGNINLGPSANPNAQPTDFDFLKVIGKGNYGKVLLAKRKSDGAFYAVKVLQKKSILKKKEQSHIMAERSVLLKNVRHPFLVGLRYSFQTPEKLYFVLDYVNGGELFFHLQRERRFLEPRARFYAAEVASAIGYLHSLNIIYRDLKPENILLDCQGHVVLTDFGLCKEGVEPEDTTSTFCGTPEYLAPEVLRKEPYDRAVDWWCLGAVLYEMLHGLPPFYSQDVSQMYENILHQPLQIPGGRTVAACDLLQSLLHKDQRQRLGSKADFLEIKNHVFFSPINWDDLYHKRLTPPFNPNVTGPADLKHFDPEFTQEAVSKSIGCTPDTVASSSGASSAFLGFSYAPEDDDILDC

[3] = molecular target: Mu-type opioid receptor (Homo sapiens, UniProt P35372); experiment: Selectivity interaction (Panel of kinases, GPCRs, ion channels and transporters (enzymatic assay)) EUB0000266bCl OPRM1
Mu-type opioid receptor, sequence (P35372 whole entry): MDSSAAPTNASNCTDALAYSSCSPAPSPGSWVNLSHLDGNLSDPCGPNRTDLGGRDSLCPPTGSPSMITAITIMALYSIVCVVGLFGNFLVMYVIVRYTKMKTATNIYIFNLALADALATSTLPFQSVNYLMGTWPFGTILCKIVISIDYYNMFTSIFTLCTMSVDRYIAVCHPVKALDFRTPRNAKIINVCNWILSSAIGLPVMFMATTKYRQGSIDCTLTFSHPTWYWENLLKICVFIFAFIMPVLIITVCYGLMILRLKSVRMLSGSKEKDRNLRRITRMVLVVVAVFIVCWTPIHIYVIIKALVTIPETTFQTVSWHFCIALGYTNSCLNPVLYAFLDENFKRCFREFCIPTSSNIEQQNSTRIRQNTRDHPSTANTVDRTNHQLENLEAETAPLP

[4] = molecular target: T3, Serine/threonine-protein kinase PLK4 (Homo sapiens) (UniProt O00444); conditions: at 10 µM
T3 sequence (whole entry): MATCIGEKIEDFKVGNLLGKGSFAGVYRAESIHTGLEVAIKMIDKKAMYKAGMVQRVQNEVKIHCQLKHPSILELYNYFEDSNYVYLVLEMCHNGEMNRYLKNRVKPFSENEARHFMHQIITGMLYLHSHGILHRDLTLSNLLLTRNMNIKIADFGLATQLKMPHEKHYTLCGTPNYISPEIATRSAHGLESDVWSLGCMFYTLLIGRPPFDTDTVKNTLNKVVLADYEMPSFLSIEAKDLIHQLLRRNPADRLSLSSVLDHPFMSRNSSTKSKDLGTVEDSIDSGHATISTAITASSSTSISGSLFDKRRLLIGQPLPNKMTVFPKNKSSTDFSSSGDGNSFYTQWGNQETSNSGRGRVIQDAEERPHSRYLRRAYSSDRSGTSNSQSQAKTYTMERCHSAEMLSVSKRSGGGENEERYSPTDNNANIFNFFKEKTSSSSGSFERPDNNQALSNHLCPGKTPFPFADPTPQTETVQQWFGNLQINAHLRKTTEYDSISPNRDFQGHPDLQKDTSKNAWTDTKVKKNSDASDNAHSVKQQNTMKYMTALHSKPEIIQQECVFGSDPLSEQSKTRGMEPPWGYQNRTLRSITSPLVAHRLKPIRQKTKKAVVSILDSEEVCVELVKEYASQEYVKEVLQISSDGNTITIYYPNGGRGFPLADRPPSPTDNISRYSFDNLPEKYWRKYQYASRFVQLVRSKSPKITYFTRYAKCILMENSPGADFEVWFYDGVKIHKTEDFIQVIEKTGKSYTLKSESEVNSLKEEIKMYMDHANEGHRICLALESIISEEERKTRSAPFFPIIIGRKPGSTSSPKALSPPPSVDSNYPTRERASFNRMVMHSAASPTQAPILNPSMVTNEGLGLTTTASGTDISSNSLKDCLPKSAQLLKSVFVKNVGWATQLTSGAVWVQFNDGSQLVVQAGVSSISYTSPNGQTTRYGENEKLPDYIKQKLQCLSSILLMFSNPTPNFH

[5] = molecular target: T4, Serine/threonine-protein kinase Sgk1 (Homo sapiens) (UniProt O00141); experiment: Selectivity interaction (Kinase screening (Nanosyn)) EUB0000604a SGK1
T4 sequence (whole entry): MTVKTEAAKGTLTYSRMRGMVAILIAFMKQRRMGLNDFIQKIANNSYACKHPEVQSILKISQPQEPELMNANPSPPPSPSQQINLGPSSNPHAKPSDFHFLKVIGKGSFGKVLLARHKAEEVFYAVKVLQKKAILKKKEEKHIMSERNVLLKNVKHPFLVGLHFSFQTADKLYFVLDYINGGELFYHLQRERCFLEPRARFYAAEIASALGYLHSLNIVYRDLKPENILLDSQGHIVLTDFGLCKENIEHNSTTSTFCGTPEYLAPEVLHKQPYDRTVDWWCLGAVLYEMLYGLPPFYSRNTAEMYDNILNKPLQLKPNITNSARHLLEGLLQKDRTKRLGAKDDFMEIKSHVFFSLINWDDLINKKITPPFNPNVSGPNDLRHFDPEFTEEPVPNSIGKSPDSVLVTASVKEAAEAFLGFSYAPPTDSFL

CCN(CC)CCCCNc1ncc2cc(-c3cc(OC)cc(OC)c3)c(NC(=O)NC(C)(C)C)nc2n1
% of control [1]: 100%

Cc1ccc(-c2ccc3c(ccc4sc5c(c43)NC[C@@H](C)NC5=O)n2)cn1
% of inhibition [2]: 3%

CCn1c(-c2nc3cc(C(=O)N4CCCC(N)C4)ccc3n2C)cc2ccccc21 (stereo not given)
pXC50 [3]: < 4 M

Cc1cc([C@@H](C)Nc2ccccc2C(=O)O)c2nc(N3CCOCC3)cc(=O)n2c1 [AZD-6482]
% of control [4]: 100%

Cc1cnc(Nc2ccc(F)cc2Cl)nc1-c1c[nH]c(C(=O)N[C@H](CO)c2cccc(Cl)c2)c1
% of inhibition [5]: 15%

Reference: ChEMBL document CHEMBL5465560, “Selectivity Literature for EUbOPEN Chemogenomic Library” (2024)
